Data on twelve molecules can be found in PubChem BioAssay (NCI).

Among the test systems are SNB-75 CNS; SF-295 CNS; RPMI-8226 leukemia; ACHN renal; HOP-62 NSCLC; OVCAR-3 ovarian; UACC-257 melanoma; COLO 205 colon; A498 renal.
Holding throughout (assay): growth of human tumour cells (NCI), 48 h

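Tested at 5 concentrations; 48 h exposure; 96-well plates; endpoints linearly interpolated, else capped at highest concentration. The concentration for 50% growth inhibition is given as GI50. TGI marks complete inhibition of growth.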 Some results are limits rather than exact numbers.

For the molecule `COC(=O)CCC(=O)Nc1cc(C)ccc1C`, the TGI with SNB-75 CNS, with SF-295 CNS, with RPMI-8226 leukemia, in the assay with ACHN renal, with HOP-62 NSCLC and in the assay with OVCAR-3 ovarian was more than 100 µM throughout. Besides, the TGI with UACC-257 melanoma, in the assay on COLO 205 colon and in the assay on A498 renal was more than 100 µM throughout.

As for `NC(=S)N/N=C1/C(=O)N(c2ccccc2)C(=O)C1C(=O)Nc1ccccc1` (centres undefined), the TGI in the assay with SNB-75 CNS, with SF-295 CNS, in the assay with ACHN renal, in the assay with HOP-62 NSCLC, in the assay with OVCAR-3 ovarian and with UACC-257 melanoma was more than 100 µM in each case. Also, the TGI with COLO 205 colon and in the assay with A498 renal was more than 100 µM in each case.

Consider `C=CC(=O)OCCCS(=O)(=O)[O-].C=CC(=O)OCCCS(=O)(=O)[O-].NC1CCCCC1N.[Pt+4]`, for which the GI50 in the assay on SNB-75 CNS, in the assay on SF-295 CNS, in the assay with RPMI-8226 leukemia, in the assay on ACHN renal, with OVCAR-3 ovarian and in the assay with UACC-257 melanoma was more than 25 µM each time. For the same molecule, the GI50 in the assay on COLO 205 colon and in the assay with A498 renal was more than 25 µM each time. Further, the TGI in the assay with SNB-75 CNS, in the assay on SF-295 CNS, in the assay on RPMI-8226 leukemia, with ACHN renal, in the assay with OVCAR-3 ovarian and in the assay with UACC-257 melanoma was more than 25 µM throughout. Also, the TGI with COLO 205 colon and in the assay on A498 renal was more than 25 µM in each case.

Regarding `O=CCC(O)C(O)C(O)CO` (centres undefined), the GI50 in the assay with SF-295 CNS is more than 100 µM; in the assay on RPMI-8226 leukemia it was more than 100 µM; in the assay with ACHN renal, more than 100 µM; in the assay with HOP-62 NSCLC, more than 100 µM; in the assay on OVCAR-3 ovarian, more than 100 µM; in the assay with UACC-257 melanoma it was 55.6 µM. Besides, the GI50 in the assay with COLO 205 colon was more than 100 µM. In addition, the TGI in the assay on SF-295 CNS, in the assay on RPMI-8226 leukemia, with ACHN renal, with HOP-62 NSCLC, in the assay with OVCAR-3 ovarian and in the assay with UACC-257 melanoma was more than 100 µM each time. In addition, in the assay with COLO 205 colon, the TGI was more than 100 µM.

For `CCOC(=O)C1=C(Nc2cccc3ccccc23)OCC1=O`, the TGI in the assay with SNB-75 CNS, in the assay with RPMI-8226 leukemia, in the assay with ACHN renal, in the assay on HOP-62 NSCLC, in the assay on OVCAR-3 ovarian and in the assay with UACC-257 melanoma was more than 100 µM throughout. Moreover, the TGI with COLO 205 colon and in the assay on A498 renal was more than 100 µM in each case.

For the molecule `CSc1ccc(NC(=O)CCl)cc1`, the TGI with SNB-75 CNS is 6.23 µM; with SF-295 CNS, 5.1 µM; with RPMI-8226 leukemia, more than 10 µM; in the assay with ACHN renal, more than 10 µM; with HOP-62 NSCLC it was more than 10 µM; in the assay on OVCAR-3 ovarian, more than 10 µM. Also, the TGI in the assay with UACC-257 melanoma was more than 10 µM; in the assay with COLO 205 colon, 8.02 µM.

Take `O=C1c2ccccc2-c2c1c1ccc([N+](=O)[O-])cc1c(=O)n2CCN1CCOCC1`: the GI50 in the assay on SNB-75 CNS was 35.5 µM; in the assay on SF-295 CNS, 92 µM; with RPMI-8226 leukemia, 35.7 µM; in the assay with ACHN renal, 33.4 µM; in the assay with HOP-62 NSCLC it was 52 µM; with OVCAR-3 ovarian, more than 100 µM. Also, in the assay on COLO 205 colon, the GI50 is more than 100 µM. Also, the TGI in the assay on SNB-75 CNS, in the assay with SF-295 CNS, in the assay with RPMI-8226 leukemia, with ACHN renal, in the assay with HOP-62 NSCLC and in the assay with OVCAR-3 ovarian was more than 100 µM throughout. This molecule came in with a TGI in the assay on COLO 205 colon of more than 100 µM.

Take `Nc1ncnc2c1N=CN(Oc1ccccc1)N2`: the TGI in the assay with SNB-75 CNS, in the assay on SF-295 CNS, in the assay with RPMI-8226 leukemia, in the assay with ACHN renal, with OVCAR-3 ovarian and with UACC-257 melanoma was more than 100 µM in each case. Besides, in the assay on COLO 205 colon, the TGI was more than 100 µM.

For `CC(C)CCCC(C)[C@H]1CCC2C3CC=C4C[C@@H](OC(=O)CC(CC(=O)[O-])C(=O)[O-])CC[C@]4(C)C3CC[C@@]21C.N.N.[Pt+4]` (some centres undefined), the GI50 in the assay with SNB-75 CNS is more than 100 µM; in the assay on SF-295 CNS, more than 100 µM; in the assay with RPMI-8226 leukemia, more than 100 µM; in the assay on ACHN renal, 47.6 µM; with OVCAR-3 ovarian it was more than 100 µM; in the assay with UACC-257 melanoma, more than 100 µM. In addition, the GI50 in the assay on COLO 205 colon and in the assay with A498 renal was more than 100 µM throughout. Besides, the TGI in the assay with SNB-75 CNS, with SF-295 CNS, in the assay with RPMI-8226 leukemia, with ACHN renal, with OVCAR-3 ovarian and with UACC-257 melanoma was more than 100 µM each time. Moreover, the TGI in the assay with COLO 205 colon and in the assay with A498 renal was more than 100 µM in each case.

Take `CC(C)(C)c1cc(C#N)c2c(c1)C(=O)OC2(c1ccccc1)c1ccccc1C#N` (centres undefined): the TGI in the assay on SNB-75 CNS, with SF-295 CNS, with ACHN renal, in the assay on HOP-62 NSCLC, in the assay on OVCAR-3 ovarian and in the assay on UACC-257 melanoma was more than 100 µM throughout. For the same molecule, the TGI in the assay with COLO 205 colon and with A498 renal was more than 100 µM in each case.

Turning to `Cc1cccc(/C=N/N=C(\N)NO)n1`, the TGI with SNB-75 CNS was 80.8 µM; in the assay with SF-295 CNS, more than 100 µM; with ACHN renal, more than 100 µM; in the assay on HOP-62 NSCLC, more than 100 µM; with OVCAR-3 ovarian, more than 100 µM; in the assay with UACC-257 melanoma it was more than 100 µM. In addition, the TGI with COLO 205 colon and in the assay on A498 renal was more than 100 µM in each case.

For the molecule `CC/C(=N/O)C(C)C(=O)CCC(=O)Nc1ccc(Cl)cc1` (centres undefined), the TGI in the assay on SNB-75 CNS, in the assay with SF-295 CNS, in the assay with RPMI-8226 leukemia, in the assay on ACHN renal, in the assay with OVCAR-3 ovarian and in the assay on UACC-257 melanoma was more than 100 µM throughout. Moreover, the TGI in the assay on COLO 205 colon and with A498 renal was more than 100 µM each time.
